Laboratory results from patent US20080139489A1, “USE OF KETOLIDES FOR PREVENTING ARTERIAL THROMBOTIC COMPLICATIONS RELATED TO ATHEROSCLEROSIS” (Aventis Pharma S.A., priority 1997, published 2008).

Tested on: rabbit platelets
Test: In vitro platelet aggregation (turbidimetry, platelet-rich plasma)
Format: cell-based
Details: for activity on this in vitro platelet aggregation test: result in words, concentration and aggregating agent not stated
Method: The platelet aggregation is measured by the turbidimetry method inspired by Born, by detecting the optical transmission through a platelet-rich plasma (PRP) to which and aggregating agent has been added. When the platelets aggregate, the plasma becomes clear and the optical transmission increases. Blood is taken (3 tubes per rabbit) by cardiac puncture from a rabbit into tubes containing sodium citrate. To obtain the platelet-rich plasma (PRP), the tubes are centrifuged at 160 g for 10 minutes. The supernatants are collected (PRP) and the pellet is re-centrifuged at 2000 g for 15 minutes to obtain the platelet-poor plasma (PPP). By dilution with the PPP, the PRP is adjusted to a concentration of 300,000 platelets per mm^3±10%. The counting is carried out using a Coulter ZM counter. Tubes containing 320 μl of PRP are incubated at +37° C. for 30 minutes in pre-incubation wells. The aggregometer is calibrated with the PPP for an optical transmission of 100% corresponding to a complete aggregation, and with the PRP obtained from the same rabbit for an optical transmission of 0% corresponding to the absence of aggregation. The test product P is added in a volume of 40 μl. After incubation for 2 minutes, the aggregating agent (10 μM ADP, 0.2 mM sodium arachidonate or collagen […]) is added in a volume of 40 μl. The aggregation begins immediately and can be seen on the printer. On the plot obtained, the height of the aggregation curve is measured in cm from the baseline before addition of the aggregating agent, and then converted into mVolts (=1/OD) using the formula 10 mV=2.5 cm.

SMILES: CC(=O)Oc1ccccc1C(=O)O [Aspirin, reference compound]
- inhibition at 50 µM (Oryctolagus cuniculus, Platelet, product concentration 5 × 10^−5 M, rabbit platelets, arachidonic acid 0.2 mM, read-out: % of inhibition of the aggregation induced by arachidonic acid): 85%
- inhibition at 100 µM (Oryctolagus cuniculus, Platelet, product concentration 10^−4 M, rabbit platelets, arachidonic acid 0.2 mM, read-out: % of inhibition of the aggregation induced by arachidonic acid): 100%
- inhibition at 10 µM (Oryctolagus cuniculus, Platelet, product concentration 10^−5 M, rabbit platelets, arachidonic acid 0.2 mM, read-out: % of inhibition of the aggregation induced by arachidonic acid): 13%
- inhibition at 1 µM (Oryctolagus cuniculus, Platelet, product concentration 10^−6 M, rabbit platelets, arachidonic acid 0.2 mM, read-out: % of inhibition of the aggregation induced by arachidonic acid): 8%

SMILES: CCC1OC(=O)C(C)(F)C(=O)C(C)C(OC2OC(C)CC(N(C)C)C2O)C(C)(OC)CC(C)C(=O)C(C)C2N(CCCCn3cnc(-c4cccnc4)c3)C(=O)OC12C [Product P2, 11,12-dideoxy-3-de((2,6-dideoxy-3-C-methyl-3-O-methyl-alpha-L-ribohexopyranosyl)oxy)-2-fluoro-6-O-methyl-3-oxo-12,11-(oxycarbonyl((4-(4-(3-pyridyl)-1H-imidazol-1-yl)butyl)-imino))erythromycin]
- activity on this in vitro platelet aggregation test: good activity

SMILES: CCC1OC(=O)C(C)C(=O)C(C)C(OC2OC(C)CC(N(C)C)C2O)C(C)(OC)CC(C)C(=O)C(C)C2N(CCCCn3cnc(-c4cccnc4)c3)C(=O)OC12C [Product P3, 11,12-dideoxy-3-de((2,6-dideoxy-3-C-methyl-3-O-methyl-alpha-L-ribohexopyranosyl)oxy)-6-O-methyl-3-oxo-12,11-(oxycarbonyl((4-(4-(3-pyridyl)-1H-imidazol-1-yl)butyl)imino))erythromycin]
- activity on this in vitro platelet aggregation test: good activity

SMILES: CC[C@H]1OC(=O)[C@H](C)C(=O)[C@H](C)[C@@H](O[C@@H]2O[C@H](C)C[C@H](N(C)C)[C@H]2O)[C@](C)(OC)C[C@@H](C)C(=O)[C@H](C)[C@H]2N(COCCn3cnc(-c4cccnc4)c3)C(=O)O[C@]12C [Product P]
- % of inhibition of the aggregation induced by arachidonic acid (product concentration 10^−4 M, rabbit platelets, arachidonic acid 0.2 mM): 90%
- % of inhibition of the aggregation induced by arachidonic acid (product concentration 10^−5 M, rabbit platelets, arachidonic acid 0.2 mM): 73%
- % of inhibition of the aggregation induced by arachidonic acid (product concentration 10^−6 M, rabbit platelets, arachidonic acid 0.2 mM): 42%
- % of inhibition of the aggregation induced by arachidonic acid (product concentration 10^−7 M, rabbit platelets, arachidonic acid 0.2 mM): 7%

SMILES: CCC1OC(=O)C(C)C(=O)C(C)C(OC2OC(C)CC(N(C)C)C2O)C(C)(OC)CC(C)C(=O)C(C)C2N(CCCCn3cnc(-c4cccnc4)n3)C(=O)OC12C (centres unmarked) [Product P1]
- activity on this in vitro platelet aggregation test: good activity
